Assay results: a melting point compilation (Tetko et al.; mined from patent text by program, amines drawn as free bases though some values may be those of a salt)

Row | SMILES | melting point [°C]
1 | O=C(C=Cc1ccc(Cl)cc1)C1CC1 | 61
2 | Cc1cn2nc(Cl)ccc2n1 | 131
3 | CC(N)c1ccccc1O (single isomer, unassigned; (+)) | 83 to 83.5
4 | CCc1ccc2[nH]c(=O)[nH]c(=O)c2c1 | 271 to 274
5 | CCC1(CC)CC(O)CC(C)(C)N1OC(C)c1ccccc1 (stereo not given) | 84 to 86
6 | O=C1CC(Sc2nnc(S)s2)C(=O)O1 (stereo not given) | 194 to 196
7 | [N-]=[N+]=NC1(O)CC(n2cc(Br)c(=O)[nH]c2=O)OC1CO (stereo not given) | 148 to 149
8 | CC(C)(C)OC(=O)CC1CC(C=O)OC(C)(C)O1 (stereo not given) | 71 to 73
9 | Cc1cc(Oc2csc(C(F)(F)F)c2)nc(-c2ccc(C(F)(F)F)cc2)n1 | 83.5 to 85
10 | c1ccc(-c2cn3ncsc3n2)cc1 | 127 to 130
11 | CCC12CCC3C4=C(CCC3C1C=CC2=O)CC(OC)=CC4 (stereo not given) | 89 to 91
12 | O=C1CNc2ncc(I)cc2N1Cc1cc(F)ccc1C(F)(F)F | 244 to 245
13 | Brc1cn2cncc2s1 | 77 to 78
14 | O=C1CCc2cc(Cl)ccc2C1 | 121 to 122
15 | O=C(CBr)Nc1ccc(O)cc1C(=O)O | 213 to 215
16 | CCn1nc(C)c(N)c1C | 69 to 70
17 | NC(=O)c1cccc(OCCF)c1OCCF | 100 to 101
18 | CCOC(=O)C1=C(C)Nc2nc(N3CCOCC3)nc(N3CCOCC3)c2C1c1ccccc1C(F)(F)F (stereo not given) | 214
19 | O=c1c(NCCCBr)c(OC2CCCCC2)c1=O | 68 to 70
20 | Nc1nc(-c2ccncc2)nc2c1c([N+](=O)[O-])nn2C1CCCC1 | 239 to 241
21 | CON=C(N)Nc1nc(C)nc(OC)n1 | 142
22 | CC(=O)C1CCC2C3CCC4CC(O)(c5ccccc5)CCC4(C)C3CCC12C (stereo not given) | 182 to 184
23 | CC(=O)c1ccc(-c2ccc(C(N)=NO)o2)cc1 | 197 to 199

Row | SMILES | melting point [°C]
24 | COc1ccc(C(=O)O)c(O)c1O | 234
25 | CCCCN1CCN(c2nsc3nc4ccccc4n23)CC1 | 121 to 122
26 | COc1cccc(Cl)c1C(O)C(N)=O (stereo not given) | 116 to 118
27 | NC(=O)c1ccc(-c2ccc(N)cc2)cc1 | 281 to 284
28 | C[C@H](O)[C@@H](COc1ccc(Cl)c(Cl)c1)n1cnc(C(N)=O)c1 | 115 to 121
29 | COc1cc(O[Si](C)(C)C(C)(C)C)c(C)c(C(=O)O)c1Br | 120 to 125
30 | CNc1nc(C)c(-c2nc3ccccc3c(=O)n2-c2ccc(C(C)=O)cc2)s1 | 245 to 246
31 | O=c1[nH]c2c(I)c([N+](=O)[O-])c(Cl)c([N+](=O)[O-])c2[nH]c1=O | 240 to 242
32 | COc1ccc(-c2cc(F)cc3c2NC(CN)CO3)c(C)c1 (stereo not given) | 82
33 | CCOC(=O)c1cc2cc(C3=NNC(=O)CC3)ccc2[nH]1 | 235 to 237
34 | C=C(C)/C=C(\NC(C)=O)C1(c2ccc(Cl)cc2)CCC1 | 120
35 | CNC1=Nc2ccsc2C(c2ccccc2)=NC1 | 223 to 227
36 | Cc1nn(-c2cncnc2)cc1N | 211 to 215
37 | COC1CC(OC)(OC)C(=O)O1 (stereo not given) | 55
38 | CSc1nc(=O)cc(N)n1-c1ccc(C)cc1 | 130 to 132
39 | C[Si](C)(C)OC(Cn1ccnc1)(Cn1ccnc1)c1ccc(F)cc1F | 134 to 136
40 | NC(=O)CN1C[C@@H]2CCCC[C@@H]2C1=O (relative stereo) | 142 to 144
41 | CCOC(=O)c1oc2ccc(OC)cc2c1OCC | 50 to 51
42 | CC(C)C1N2C=CC=CC2=CC1(C=C(Br)Br)c1ccc(F)cc1 (stereo not given) | 134 to 135
43 | Cc1cnc(N2CCC(c3ccc([N+](=O)[O-])cc3)CC2)n1C | 178 to 179
44 | CN1CCN(c2n[nH]c3cc(F)ccc23)CC1 | 164 to 166
45 | CC(C)(C#N)c1cc(C#N)cc(Cn2cncn2)c1 | 90 to 92

Second part, the molecule after the results:

Row | melting point [°C] | SMILES
46 | 152 to 153 | CCN(CC)CCN1C(=O)C(NC(=O)c2ccccc2)C(C)(C)SC1=S (stereo not given)
47 | 162 to 165 | CCOC(=O)CSc1nc(Cl)cc(NN=Cc2ccc(Cl)cc2)n1
48 | 112 to 113 | CCOC(=O)n1c(C)c(Cc2ccc(Cl)cc2Cl)c2nc(C#N)ccc21
49 | 144 to 146 | CCCc1c(OCCOc2cccc(Sc3ccc(C(=O)O)cc3)c2)ccc(C(C)=O)c1O
50 | 305 to 309 | CC(=O)c1ccc2nc3ccc(C(=O)O)cc3c(=O)n2c1
51 | 194 to 196 | Cc1cc(N2C=C3C(c4ccccc4)=C(OCc4ncn(C)n4)NN3C=N2)no1
52 | 102 to 104 | Cc1ccc(-c2ccccc2C(=O)NC(C)C#N)cc1 (stereo not given)
53 | > 200 | O=C(NCc1ccc(Cl)cc1)c1cnc2cc(-n3cccc3)ccc2c1O
54 | 278 to 280 | O=C1CC(Nc2cc([N+](=O)[O-])ccc2Cl)=NN1c1c(Cl)cc(Cl)cc1Cl
55 | 211 to 212 | COc1cccc(-c2nc(C)nn2-c2ccc(S(N)(=O)=O)cc2)c1
56 | 188 to 189 | Cn1ncc2c1-c1c(Oc3ccc(F)cc3)sc(C(N)=O)c1CC2
57 | 215 to 216 | COc1ccc(-n2c(=O)oc(=O)c3ccccc32)cc1
58 | 172 to 173 | O=C(O)[C@@]12C[C@@H](c3ccccc31)c1ccc(Cl)cc12
59 | 45 | CCCCCCCC(=O)N(C)Cc1cccc(-c2ccc(Nc3ccccc3C(=O)O)cc2)c1
60 | 124 | CCOC(=O)C(NC=O)=C1CC2CCC(C1)N2C(=O)OCc1ccccc1
61 | 83.5 | COC(=O)NN=Cc1ccnc2ccccc12
62 | 214 to 215 | Cc1c(N2CCc3ccccc3C2)c(F)cn2c(=O)c(C(=O)O)cc(C3CC3)c12
63 | 220 to 222 | NC(=O)N1C(=O)C(C(=O)c2ccc(Cl)s2)c2cc(Cl)ccc21 (stereo not given)
64 | 115 | O=C(O)c1nc(-c2cc(Oc3ccc(Cl)cc3Cl)c(O)cc2Cl)no1
65 | 102 to 103 | Cn1c2c(ccc1=O)C(NCCc1ccc(Cl)cc1Cl)CCC2 (stereo not given)

Row | melting point [°C] | SMILES
66 | 141 | CON(C)C(=O)/C=C/c1c(C2CC2)nc2ccccc2c1-c1ccc(F)cc1
67 | 129 to 131 | COC(=O)c1cc2cc(OC)ccc2cc1O
68 | 139 | O=c1n(Cc2ccc([N+](=O)[O-])cc2)c2ccc(Cl)cc2n1C1CCCCC1
69 | 326 | Cc1cc(-c2ccc(C(F)(F)F)cc2)cn2c(-c3nc(-c4cccc(S(N)(=O)=O)c4)no3)cnc12
70 | 190 to 191 | CCCC(CCC)C(=O)NC(=O)C(N)c1ccccc1 (stereo not given)
71 | 115 to 118 | COc1nc(OC)nc(SC(C(=O)O)C(C)(C)c2ccccc2)n1 (stereo not given)
72 | 195 | N#CC(Nc1ccccc1[N+](=O)[O-])c1c(Cl)cccc1Cl (stereo not given)
73 | 75 to 90 | COC(=O)c1ccccc1-c1ccc(CNc2nc(Cl)nc3ccccc23)cc1
74 | 153 to 156 | CNC(=O)c1cc(NC(=O)c2ccc(C)c(Nc3nccc(-c4cccnc4)n3)c2)cc(N2CCOCC2)c1
75 | 206 to 208 | COc1ccc2[nH]c(C(=O)O)c(-c3ccccc3F)c2c1
76 | 231 to 233 | O=C1c2cccc(O)c2Cc2cccc(O)c21
77 | 236 | Cc1ccc(Oc2c([N+](=O)[O-])cc(C(=O)O)cc2S(N)(=O)=O)cc1
78 | 214 to 215 | COc1cccc(-c2cc(S(=O)(=O)c3ccc(N)cc3)cc(N3CCCC3)n2)c1
79 | 133 to 135 | O=C(Oc1ccccc1)c1ccc(N(Cc2ccccc2)Cc2ccccc2)cc1Cl
80 | 100 | O=C(O)CCC=C(c1ccc(F)cc1)c1ccc(F)cc1
81 | 207 | Cc1cn2c(N)c(Cl)cc(C(=O)NCC3CCN(C(C)C(=O)C(C)(C)C)CC3)c2n1 (stereo not given)
82 | 292 to 295 | Cc1c2c(cc3c(=O)c4c(F)cccc4oc13)CC(C(=O)O)O2 (stereo not given)
83 | 109 to 112 | OCCNC(=S)NC(Cc1cccs1)c1ccccc1 (stereo not given)
84 | 171 | Cc1ccc(S(=O)(=O)N2CCN(C(c3ccccc3)c3ccc(Cl)cc3)CC2)cc1 (single isomer, unassigned; (+))
85 | 187 to 189 | C=C(C)Cn1c(=O)n(C)c(=O)c2cn(Cc3cccc4ccccc34)nc21

Row | melting point [°C] | SMILES
86 | 114 to 115 | CCOC(=O)C1=NS(=O)(=O)c2ccccc21
87 | 77 to 79 | COc1ccc(C[C@H](CC(=O)N2CCOCC2)C(=O)OCc2ccccc2)cc1
88 | 190 to 192 | CC(C)(C)OC(=O)NCCCn1c2c(c3ccc(NCC(=O)O)cc3c1=O)C(=O)c1ccccc1-2
89 | 130 to 132 | O=C(NCCCCCNc1c([N+](=O)[O-])cnc2ccccc12)c1ccccc1
90 | 214 | COc1ccc(S(=O)(=O)C2(C(=O)NO)CCN(Cc3ccc(-c4ccccn4)cc3)CC2)cc1
91 | 68 to 69 | CCc1ccc(-c2coc3c(C)c(C)c(N)c(C)c23)cc1
92 | 122 to 125 | O=C1c2ccccc2C(=O)N1CCCCc1ccc(S(=O)(=O)Cl)cc1
93 | 147 to 151 | COCc1ncc(Nc2ccc(Cl)cc2)nc1-n1nc(C)cc1C
94 | 118 to 120 | CC1(C)OC(c2ccc(S(C)(=O)=O)cc2)=C(c2ccc(OC(F)(F)F)cc2)C1=O
95 | 155 to 157 | CCCC(NOCC)=C1C(=O)CC(c2cc3ccccc3[nH]c2=O)CC1=O (stereo not given)
96 | 170 to 183 | CN(C)CCNCc1ccc(-c2cc3ncnc(Nc4ccc5[nH]ccc5c4)c3s2)cc1
97 | 95 to 97 | Cc1ccc(S(=O)(=O)OCC2Cc3ccccc3C2)cc1
98 | 173 to 175 | O=C(NC(=O)c1c(F)cccc1F)Nc1ccc(SC(F)(F)F)cc1F
99 | 206 to 207 | CC1(C)CCC(C)(C)c2cc(NC(=O)c3ccc(C(=O)O)cn3)ccc21
100 | 192 | O=C(CCCCCOc1ccc2c(c1)[nH]c1ccccc12)NO
101 | 138 | COC(=O)Cc1sc(=S)[nH]c1COc1ccccc1
102 | 217 | NC(Cc1ccc(C(=O)c2ccccc2)cc1)C(=O)O (racemic)
103 | 174 to 176 | Cn1cnc(CNC(=O)c2ccnc(N3CCN(Cc4ccc(F)cc4)C3=O)c2)c1
104 | 164 to 166 | CC(=O)Nc1nc2ccc(OC(C)=O)cc2n1S(=O)(=O)N(C)C
105 | 231 to 233 | CC(=O)Oc1cc2nc[nH]c(=O)c2cc1OCc1ccccc1
